Measurements as given in ChEMBL document CHEMBL1128994, “Carboxylic acid bioisosteres of -linked dipeptide analogues of the folate-based thymidylate synthase (TS) inhibitor, 2-desamino-2-methyl-N10-propargyl-5,8-dideazafolic acid (ICI 198583)” (Bioorg Med Chem Lett, 1996).
pIC50: −log10 of the molar value.

Key:
L1210 [1] = test: Compound was evaluated for the growth inhibition of mouse L1210 cells.; format: functional, cell-based
L1210 [2] = test: Compound was evaluated for the growth inhibition of mouse L1210 (impaired) cells.; format: functional, cell-based
L1210 (1565) = test: Compound was evaluated for the growth inhibition of […].; format: functional, cell-based
Thymidylate synthase [3] = target: T1, Thymidylate synthase (Mus musculus, UniProt P07607); test: Compound was evaluated for the inhibition of Thymidylate synthase.
L1210 [4] = test: Compound was evaluated for the growth inhibition of mouse L1210 cells in experiment 1; format: functional, cell-based
L1210 [5] = test: Compound was evaluated for the growth inhibition of mouse L1210 cells in experiment 2; format: functional, cell-based
Thymidylate synthase [6] = target: T1, Thymidylate synthase; test: Compound was evaluated for the inhibition of Thymidylate synthase in experiment 1
Thymidylate synthase [7] = target: T1, Thymidylate synthase; test: Compound was evaluated for the inhibition of Thymidylate synthase in experiment 2

T1 sequence (P07607 whole entry): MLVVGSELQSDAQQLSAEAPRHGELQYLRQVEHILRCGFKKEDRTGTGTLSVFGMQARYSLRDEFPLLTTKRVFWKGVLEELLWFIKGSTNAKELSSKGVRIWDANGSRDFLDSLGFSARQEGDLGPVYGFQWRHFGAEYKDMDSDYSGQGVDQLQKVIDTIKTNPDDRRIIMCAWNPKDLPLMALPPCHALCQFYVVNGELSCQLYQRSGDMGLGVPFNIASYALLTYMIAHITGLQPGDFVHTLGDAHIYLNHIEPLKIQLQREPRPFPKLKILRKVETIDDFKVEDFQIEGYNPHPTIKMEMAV

Row | Compound | pIC50 (L1210 [1]; Mus musculus, L1210) | pIC50 (L1210 [2]) | pIC50 (L1210 (1565)) | pIC50 (L1210 [1]; l1210) | pIC50 (Thymidylate synthase [3]) | pIC50 (L1210 [4]) | pIC50 (L1210 [5]) | pIC50 (Thymidylate synthase [6]) | pIC50 (Thymidylate synthase [7])
1 | C#CCN(Cc1cc2c(O)nc(C)nc2cc1C)c1ccc(C(=O)N[C@@H](CCC(=O)N[C@@H](C)c2nnn[nH]2)C(=O)O)c(F)c1 | 6.46 | 5.70 | 6.00 | 6.59 | 9.00 | – | – | – | –
2 | C#CCN(Cc1cc2c(O)nc(C)nc2cc1C)c1ccc(C(=O)N[C@@H](CCC(=O)N[C@@H](CCc2nnn[nH]2)C(=O)O)C(=O)O)c(F)c1 | – | 5.10 | 5.13 | – | – | 5.82 | 6.12 | 9.09 | 8.73
3 | C#CCN(Cc1cc2c(=O)[nH]c(C)nc2cc1C)c1ccc(C(=O)N[C@@H](CCC(=O)NC(CCC(=O)O)C(=O)O)C(=O)O)c(F)c1 (stereo in doubt) | 6.70 | 5.17 | 5.06 | – | – | – | – | 9.40 | 9.04

Next, values leading:

Row | pIC50 (L1210 [1]; Mus musculus, L1210) | pIC50 (L1210 [2]) | pIC50 (L1210 (1565)) | pIC50 (L1210 [1]; l1210) | pIC50 (Thymidylate synthase [3]) | pIC50 (L1210 [4]) | pIC50 (L1210 [5]) | pIC50 (Thymidylate synthase [6]) | pIC50 (Thymidylate synthase [7]) | Compound
4 | 6.48 | 4.82 | 4.80 | – | – | – | – | – | – | C#CCN(Cc1ccc2nc(C)nc(O)c2c1)c1ccc(C(=O)N[C@@H](CCC(=O)N[C@H](CCC(=O)O)C(=O)O)C(=O)O)cc1
5 | – | 4.36 | 4.39 | – | – | 5.21 | 5.31 | 8.22 | 8.40 | C#CCN(Cc1ccc2nc(C)[nH]c(=O)c2c1)c1ccc(C(=O)N[C@@H](CCC(=O)N[C@@H](CCc2nnn[nH]2)C(=O)O)C(=O)O)cc1
